Reference: patent US20250176550A1, “HERBICIDE COMPOSITION OF URACIL COMPOUND CONTAINING CARBOXYLATE FRAGMENT AND THE USE THEREOF” (Jiangsu Flag Chemical Industry Co., Ltd., priority 2022, published 2025)
Where two headings read alike, the source gives them in different places.

How the values were obtained:
Format in all cases: in vivo
eclipta prostrata [1] = assay: Indoor virulence and combined effect, greenhouse pot test, pre-emergence soil spray treatment, fresh weight inhibition
Protocol: (§1) The active ingredients A and B are respectively screened and an indoor combined effect of the composition on weeds was evaluated by an indoor test and a field test, to determine a combined effect of the composition on weeds.
(§2) Quantitative seeds of Poaceae weeds (echinochloa crusgalli, Digitaria sanguinalis, setaria viridis, Eleusine indica, avena fatua, alopecurus japonicus, alopecurus aequalis, Lolium multiflorum) and broadleaf weeds (eclipta prostrata, rorippa dubia, Abutilon theophrasti, conyza canadensis, veronica persica, myosoton aquaticum, polygonum lapathifolium, galium aparine var. tenerum, alisma plantago-aquatica, geranium carolinianum) were sown in paper cup containing nutrient soil with a diameter of 7 cm, covered with soil for 1 cm after sowing. After pressing and watering, they were cultured in a greenhouse according to a conventional method. Poaceae weeds grew to 3˜4 leaf stage, broad-leaved weeds grew to 4˜6 leaf stage, spraying treatment to both stem and leaf was performed; and pre-seedling soil spray treatment was performed 24 hours after sowing. Following an experimental design dosage, a WP-2000 walking spray tower (spindle speed 96 mm/r, spray height 200 mm, effective spray amplitude of nozzle 350 mm, nozzle flow rate 390 mL/min, nozzle walking speed 210 mm/s) was used for the spray treatment. The experiment was repeated three times. After being treated, a sample material is placed in an operation hall, and after the drug solution is naturally dried out, the sample material is placed in a greenhouse and managed according to the conventional method. A reaction of weeds to the drug agent is observed and recorded, and a regularly visual check of a control effect of the drug agent on weeds was performed after the treatment.
(§3) All of original drugs were using acetone as a solvent, being diluted with 0.1 wt % emulsifier of Tween-80 aqueous solution, and being diluted right before using.
(§4) When determining a ratio or content of the active ingredient A and the active ingredient B, it should be measured from characteristics of action of both agents and virulence thereof, as well as the main purpose of use of a formula shall also be considered in. In the present study, on a basis of previous pre-test, the dosages of the active ingredient A and the active ingredient B were set, when being used alone and mixed, as shown in the following table. Water containing no agent, but containing the same solvent and emulsifier was used as a blank control.
(§5) Repeat 4 times for each treatment, 3 pots per treatment each time and 30 weed seeds were sown for each pot.
(§6) Adopting an absolute number survey method, using a blade to cut the whole seedling of surviving weed along soil surface, and weighting the fresh weight of the weed with an analytical balance. For weeds that had died, counting the fresh weight as zero.
(§7) Survey period and frequency: 21 days after the treatment, total 1 investigation.
(§8) The theoretical fresh weight inhibition rate (E0-Expected Efficacy=[…]) of each treatment combination was calculated by Gowing method, and then compared with the measured inhibition rate (E-Observed Efficacy) to evaluate the combined effect type of both on weeds. When E-E0 value was greater than 10%, it was counted as a synergistic effect, less than −10%, it was counted as an antagonistic effect, and between −10%˜10%, it was counted as an additive effect. According to a plurality of factors including an actual control efficacy, a herbicide characteristic, a formula balance and other factors to determine the best ratio. In the formula, X is the fresh weight inhibition rate of the ingredient A at a dosage of P; Y is the fresh weight inhibition rate of the active ingredient B at a dosage of Q.
(§9) The statistical results are shown in Table 1 to Table 44 below, except for those marked clearly as “pre-emergence treatment”, all others are “post-emergence treatment”. […]

digitaria sanguinalis = assay: as above
Protocol: as §1, §2, §3, §4, §5, §6, §7, §8, §9

setaria viridis = assay: Indoor virulence and combined effect, greenhouse pot test, post-emergence stem and leaf spray, fresh weight inhibition; settings: for inhibition at 750 g/ha: 750 g a.i./ha; for Fresh weight inhibition rate %, B single agent: Table 10
Protocol: as §1
as §2, with “Following an experimental design dosage, a WP-2000 walking spray tower (spindle speed 96 mm/r, spray height 200 mm, effective spray amplitude of nozzle 350 mm, nozzle flow rate 390 mL/min, nozzle walking speed 210 mm/s) was used for the spray treatment.” left out, “method.” for “method. A reaction of weeds to the drug agent is observed and recorded, and a regularly visual check of a control effect of the drug agent on weeds was performed after the treatment.”
as §3, §4, §5, §6, §7
When E-E0 value was greater than 10%, it was counted as a synergistic effect, less than −10%, it was counted as an antagonistic effect, and between −10%˜10%, it was counted as an additive effect. […] In the formula, X is the fresh weight inhibition rate of the ingredient A at a dosage of P; Y is the fresh weight inhibition rate of the active ingredient B at a dosage of Q.

alopecurus japonicus = assay: as above; settings: for inhibition at 25 g/ha: 25 g a.i./ha; for Fresh weight inhibition rate %, B single agent: Table 25
Protocol: as §1, §2, §3, §4, §5, §6, §7, §8, §9

eclipta prostrata [2] = assay: as above
Protocol: as §1, §2, §3, §4, §5, §6, §7, §8, §9

eleusine indica = assay: Indoor virulence and combined effect, greenhouse pot test, pre-emergence soil spray treatment, fresh weight inhibition
Protocol: as §1, §2, §3, §4, §5, §6, §7, §8, §9

CCc1cccc(C)c1N(C(=O)CCl)[C@@H](C)COC [S-metolachlor]
Fresh weight inhibition rate %, B single agent (eclipta prostrata [1]; Table 28, B 300 g a.i./ha): 45.64% | Fresh weight inhibition rate %, B single agent (eclipta prostrata [1]; Table 28, B 450 g a.i./ha): 57.41% | Fresh weight inhibition rate %, B single agent (eclipta prostrata [1]; Table 28, B 600 g a.i./ha): 61.78% | Fresh weight inhibition rate %, B single agent (eclipta prostrata [1]; Table 28, B 750 g a.i./ha): 70.72%

CCOCN(C(=O)CCl)c1c(C)cccc1CC [acetochlor]
Fresh weight inhibition rate %, B single agent (digitaria sanguinalis; Table 40, B 250 g a.i./ha): 55.88% | Fresh weight inhibition rate %, B single agent (digitaria sanguinalis; Table 40, B 375 g a.i./ha): 67.45%

CCNc1nc(Cl)nc(NC(C)C)n1 [atrazine]
inhibition at 600 g/ha (setaria viridis; Setaria viridis, 504 h, Table 8, 600 g a.i./ha, post-emergence, 21 days after treatment, read-out: Fresh weight inhibition rate %, B single agent): 26.1% | inhibition at 750 g/ha (setaria viridis; Setaria viridis, 504 h, Table 8, post-emergence, 21 days after treatment, read-out: Fresh weight inhibition rate %, B single agent): 33% | inhibition at 800 g/ha (setaria viridis; Setaria viridis, 504 h, Table 8, 800 g a.i./ha, post-emergence, 21 days after treatment, read-out: Fresh weight inhibition rate %, B single agent): 41.6%

CCSC(C)CC1CC(=O)C(/C(CC)=N/OC/C=C/Cl)=C(O)C1 (centres unmarked) [clethodim]
inhibition at 25 g/ha (alopecurus japonicus; Alopecurus japonicus, 504 h, Table 5, post-emergence, 21 days after treatment, read-out: Fresh weight inhibition rate %, B single agent): 7.52% | inhibition at 40 g/ha (alopecurus japonicus; Alopecurus japonicus, 504 h, Table 5, 40 g a.i./ha, post-emergence, 21 days after treatment, read-out: Fresh weight inhibition rate %, B single agent): 34.8% | inhibition at 60 g/ha (alopecurus japonicus; Alopecurus japonicus, 504 h, Table 5, 60 g a.i./ha, post-emergence, 21 days after treatment, read-out: Fresh weight inhibition rate %, B single agent): 43%

C#CCN1C(=O)COc2cc(F)c(N3C(=O)C4=C(CCCC4)C3=O)cc21 [flumioxazin]
Fresh weight inhibition rate %, B single agent (eclipta prostrata [2]; Table 11, B 8 g a.i./ha): 24.97% | Fresh weight inhibition rate %, B single agent (eclipta prostrata [2]; Table 11, B 16 g a.i./ha): 39.68% | Fresh weight inhibition rate %, B single agent (eclipta prostrata [2]; Table 11, B 20 g a.i./ha): 45.24% | Fresh weight inhibition rate %, B single agent (eclipta prostrata [2]; Table 11, B 30 g a.i./ha): 54.24%

CCOC(=O)COC(=O)c1cc(Oc2ccc(C(F)(F)F)cc2Cl)ccc1[N+](=O)[O-] [fluoroglycofen-ethyl]
Fresh weight inhibition rate %, B single agent (eclipta prostrata [2]; Table 12, B 8 g a.i./ha): 11.99% | Fresh weight inhibition rate %, B single agent (eclipta prostrata [2]; Table 12, B 16 g a.i./ha): 27.44% | Fresh weight inhibition rate %, B single agent (eclipta prostrata [2]; Table 12, B 20 g a.i./ha): 42.03%

CCCCCCC(C)OC(=O)COc1nc(F)c(Cl)c(N)c1Cl (centres unmarked) [fluroxypyr-meptyl]
Fresh weight inhibition rate %, B single agent (eclipta prostrata [2]; Table 42, B 32 g a.i./ha): 30.91% | Fresh weight inhibition rate %, B single agent (eclipta prostrata [2]; Table 42, B 40 g a.i./ha): 34.55% | Fresh weight inhibition rate %, B single agent (eclipta prostrata [2]; Table 42, B 60 g a.i./ha): 39.55% | Fresh weight inhibition rate %, B single agent (eclipta prostrata [2]; Table 42, B 80 g a.i./ha): 73.18%

COC(=O)[C@@H](C)Oc1ccc(Oc2ncc(C(F)(F)F)cc2Cl)cc1 [haloxyfop-P-methyl]
Fresh weight inhibition rate %, B single agent (alopecurus japonicus; B 15 g a.i./ha): 7.80% | Fresh weight inhibition rate %, B single agent (alopecurus japonicus; B 25 g a.i./ha): 15.29% | Fresh weight inhibition rate %, B single agent (alopecurus japonicus; B 40 g a.i./ha): 15.32% | Fresh weight inhibition rate %, B single agent (alopecurus japonicus; B 60 g a.i./ha): 27.52%

CC(C)c1ccc(NC(=O)N(C)C)cc1 [isoproturon]
Fresh weight inhibition rate %, B single agent (setaria viridis; B 400 g a.i./ha): 22.19% | Fresh weight inhibition rate %, B single agent (setaria viridis; B 495 g a.i./ha): 23.26% | Fresh weight inhibition rate %, B single agent (setaria viridis; B 600 g a.i./ha): 33.26%

CCC(CC)Nc1c([N+](=O)[O-])cc(C)c(C)c1[N+](=O)[O-] [pendimethalin]
Fresh weight inhibition rate %, B single agent (eleusine indica; Table 21, B 300 g a.i./ha): 36.92% | Fresh weight inhibition rate %, B single agent (eleusine indica; Table 21, B 375 g a.i./ha): 54.44%

CCc1cc(C)cc(CC)c1-c1c(OC(=O)C(C)(C)C)n2n(c1=O)CCOCC2 [pinoxaden]
inhibition at 15 g/ha (alopecurus japonicus; Alopecurus japonicus, 504 h, Table 7, 15 g a.i./ha, post-emergence, 21 days after treatment, read-out: Fresh weight inhibition rate %, B single agent): 38.8% | inhibition at 20 g/ha (alopecurus japonicus; Alopecurus japonicus, 504 h, Table 7, 20 g a.i./ha, post-emergence, 21 days after treatment, read-out: Fresh weight inhibition rate %, B single agent): 42.3% | inhibition at 25 g/ha (alopecurus japonicus; Alopecurus japonicus, 504 h, Table 7, post-emergence, 21 days after treatment, read-out: Fresh weight inhibition rate %, B single agent): 58.7%

CCC(=O)Nc1ccc(Cl)c(Cl)c1 [propanil]
inhibition at 500 g/ha (setaria viridis; Setaria viridis, 504 h, Table 6, 500 g a.i./ha, post-emergence, 21 days after treatment, read-out: Fresh weight inhibition rate %, B single agent): 48.1% | inhibition at 750 g/ha (setaria viridis; Setaria viridis, 504 h, Table 6, post-emergence, 21 days after treatment, read-out: Fresh weight inhibition rate %, B single agent): 58.1% | inhibition at 1000 g/ha (setaria viridis; Setaria viridis, 504 h, Table 6, 1000 g a.i./ha, post-emergence, 21 days after treatment, read-out: Fresh weight inhibition rate %, B single agent): 69.1%

CCCN(CCC)c1c([N+](=O)[O-])cc(C(F)(F)F)cc1[N+](=O)[O-] [trifluralin]
Fresh weight inhibition rate %, B single agent (digitaria sanguinalis; Table 39, B 156.25 g a.i./ha): 12.50% | Fresh weight inhibition rate %, B single agent (digitaria sanguinalis; Table 39, B 250 g a.i./ha): 48.67% | Fresh weight inhibition rate %, B single agent (digitaria sanguinalis; Table 39, B 375 g a.i./ha): 62.58%
